Reference: patent publication US12516056B2, “Compounds for inhibition of janus kinase 1” (MANKIND PHARMA LTD., priority 2019, dated 2026)

How the values were obtained:
Recombinant TYK2 = target: T1, Recombinant TYK2 (Homo sapiens, UniProt P29597); assay: JAK biochemical assay (LANCE Ultra TR-FRET), TYK2; conditions: recombinant TYK2, TR-FRET; read-out: Biochemical Assay (μM) TYK2
T1 construct: purchased Carna Biosciences
Description: (§1) Recombinant JAK1, JAK2, JAK3 and TYK2 (Carna Biosciences) were used to develop biochemical assays in 50 mM HEPES pH 7.5, 1 mM EGTA, 10 mM MgCl2, 2 mM DTT and 0.01% Tween-20. […] The intensity of the light emission is proportional to the level of ULight substrate phosphorylation. Compounds which interfere with JAK enzyme activity show a lesser substrate phosphorylation and values are projected in terms of % inhibition in comparison to vehicle control.

Recombinant JAK2 = target: T2, Recombinant JAK2 (Homo sapiens, UniProt O60674); assay: JAK biochemical assay (LANCE Ultra TR-FRET), JAK2; conditions: recombinant JAK2, TR-FRET; read-out: Biochemical Assay (μM) JAK2
T2 construct: purchased Carna Biosciences
T2 sequence (O60674 whole entry): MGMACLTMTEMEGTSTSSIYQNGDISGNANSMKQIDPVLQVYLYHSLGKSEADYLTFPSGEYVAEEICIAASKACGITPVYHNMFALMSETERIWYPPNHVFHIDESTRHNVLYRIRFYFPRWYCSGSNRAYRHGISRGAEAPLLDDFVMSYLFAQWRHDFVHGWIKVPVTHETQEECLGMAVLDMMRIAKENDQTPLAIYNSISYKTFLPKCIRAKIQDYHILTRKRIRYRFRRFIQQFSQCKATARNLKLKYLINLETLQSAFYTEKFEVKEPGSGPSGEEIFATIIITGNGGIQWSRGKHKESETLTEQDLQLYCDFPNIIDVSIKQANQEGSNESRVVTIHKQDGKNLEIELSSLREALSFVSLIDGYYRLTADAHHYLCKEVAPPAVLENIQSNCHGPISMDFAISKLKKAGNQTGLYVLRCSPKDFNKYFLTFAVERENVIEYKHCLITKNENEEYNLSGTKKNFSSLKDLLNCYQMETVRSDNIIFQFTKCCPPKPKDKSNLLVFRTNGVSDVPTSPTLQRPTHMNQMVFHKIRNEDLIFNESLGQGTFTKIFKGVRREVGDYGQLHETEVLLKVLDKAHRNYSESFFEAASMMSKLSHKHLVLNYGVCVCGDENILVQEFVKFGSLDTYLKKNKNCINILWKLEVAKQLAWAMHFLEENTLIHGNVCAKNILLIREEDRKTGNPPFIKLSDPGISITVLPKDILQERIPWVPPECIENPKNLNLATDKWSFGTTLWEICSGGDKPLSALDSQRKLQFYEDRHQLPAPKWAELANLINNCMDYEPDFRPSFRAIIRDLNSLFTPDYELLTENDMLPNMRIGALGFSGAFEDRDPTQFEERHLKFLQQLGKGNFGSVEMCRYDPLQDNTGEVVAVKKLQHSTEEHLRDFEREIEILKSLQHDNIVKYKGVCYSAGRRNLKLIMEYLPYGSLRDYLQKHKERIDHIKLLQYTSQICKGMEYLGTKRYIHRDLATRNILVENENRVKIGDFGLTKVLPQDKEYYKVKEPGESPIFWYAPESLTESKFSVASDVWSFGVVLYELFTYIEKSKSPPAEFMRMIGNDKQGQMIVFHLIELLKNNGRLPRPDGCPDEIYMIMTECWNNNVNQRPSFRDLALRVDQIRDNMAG
Description: as §1

Recombinant JAK1 = target: T3, Recombinant JAK1 (Homo sapiens, UniProt P23458); assay: JAK biochemical assay (LANCE Ultra TR-FRET), JAK1; conditions: recombinant JAK1, TR-FRET; read-out: Biochemical Assay (μM) JAK1
T3 construct: purchased Carna Biosciences
T3 sequence (P23458 whole entry): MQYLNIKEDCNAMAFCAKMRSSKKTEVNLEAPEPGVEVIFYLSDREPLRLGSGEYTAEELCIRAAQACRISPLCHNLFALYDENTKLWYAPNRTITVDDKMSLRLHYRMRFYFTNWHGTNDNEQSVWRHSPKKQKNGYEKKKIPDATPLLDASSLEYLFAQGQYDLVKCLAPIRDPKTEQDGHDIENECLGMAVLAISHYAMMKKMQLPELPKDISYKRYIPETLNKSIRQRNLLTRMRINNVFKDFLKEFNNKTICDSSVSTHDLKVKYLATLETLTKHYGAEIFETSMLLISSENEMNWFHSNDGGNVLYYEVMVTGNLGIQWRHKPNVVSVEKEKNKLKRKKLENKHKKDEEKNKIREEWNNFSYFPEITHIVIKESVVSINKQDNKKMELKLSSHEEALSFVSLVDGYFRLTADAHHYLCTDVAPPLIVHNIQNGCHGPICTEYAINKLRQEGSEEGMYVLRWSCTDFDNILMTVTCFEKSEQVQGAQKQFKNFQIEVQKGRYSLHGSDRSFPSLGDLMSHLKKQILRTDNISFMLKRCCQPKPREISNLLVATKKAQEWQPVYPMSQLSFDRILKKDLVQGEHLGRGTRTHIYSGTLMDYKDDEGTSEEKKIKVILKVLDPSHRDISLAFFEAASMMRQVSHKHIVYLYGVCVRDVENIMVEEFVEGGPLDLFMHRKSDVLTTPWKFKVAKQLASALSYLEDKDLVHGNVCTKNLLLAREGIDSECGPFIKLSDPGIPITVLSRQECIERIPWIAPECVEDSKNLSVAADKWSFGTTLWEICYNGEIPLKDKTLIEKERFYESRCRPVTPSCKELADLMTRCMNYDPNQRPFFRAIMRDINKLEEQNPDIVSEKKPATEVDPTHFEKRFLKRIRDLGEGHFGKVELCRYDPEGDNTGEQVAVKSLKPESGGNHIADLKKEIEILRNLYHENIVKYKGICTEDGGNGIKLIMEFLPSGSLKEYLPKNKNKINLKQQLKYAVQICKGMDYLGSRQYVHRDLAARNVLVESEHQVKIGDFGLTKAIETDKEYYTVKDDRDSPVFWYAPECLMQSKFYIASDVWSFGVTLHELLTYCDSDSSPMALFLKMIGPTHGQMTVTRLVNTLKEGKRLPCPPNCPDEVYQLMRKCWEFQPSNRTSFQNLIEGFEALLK
Description: as §1

Recombinant JAK3 = target: T4, Recombinant JAK3 (Homo sapiens, UniProt P52333); assay: JAK biochemical assay (LANCE Ultra TR-FRET), JAK3; conditions: recombinant JAK3, TR-FRET; read-out: Biochemical Assay (μM) JAK3
T4 construct: purchased Carna Biosciences
T4 sequence (P52333 1-1124): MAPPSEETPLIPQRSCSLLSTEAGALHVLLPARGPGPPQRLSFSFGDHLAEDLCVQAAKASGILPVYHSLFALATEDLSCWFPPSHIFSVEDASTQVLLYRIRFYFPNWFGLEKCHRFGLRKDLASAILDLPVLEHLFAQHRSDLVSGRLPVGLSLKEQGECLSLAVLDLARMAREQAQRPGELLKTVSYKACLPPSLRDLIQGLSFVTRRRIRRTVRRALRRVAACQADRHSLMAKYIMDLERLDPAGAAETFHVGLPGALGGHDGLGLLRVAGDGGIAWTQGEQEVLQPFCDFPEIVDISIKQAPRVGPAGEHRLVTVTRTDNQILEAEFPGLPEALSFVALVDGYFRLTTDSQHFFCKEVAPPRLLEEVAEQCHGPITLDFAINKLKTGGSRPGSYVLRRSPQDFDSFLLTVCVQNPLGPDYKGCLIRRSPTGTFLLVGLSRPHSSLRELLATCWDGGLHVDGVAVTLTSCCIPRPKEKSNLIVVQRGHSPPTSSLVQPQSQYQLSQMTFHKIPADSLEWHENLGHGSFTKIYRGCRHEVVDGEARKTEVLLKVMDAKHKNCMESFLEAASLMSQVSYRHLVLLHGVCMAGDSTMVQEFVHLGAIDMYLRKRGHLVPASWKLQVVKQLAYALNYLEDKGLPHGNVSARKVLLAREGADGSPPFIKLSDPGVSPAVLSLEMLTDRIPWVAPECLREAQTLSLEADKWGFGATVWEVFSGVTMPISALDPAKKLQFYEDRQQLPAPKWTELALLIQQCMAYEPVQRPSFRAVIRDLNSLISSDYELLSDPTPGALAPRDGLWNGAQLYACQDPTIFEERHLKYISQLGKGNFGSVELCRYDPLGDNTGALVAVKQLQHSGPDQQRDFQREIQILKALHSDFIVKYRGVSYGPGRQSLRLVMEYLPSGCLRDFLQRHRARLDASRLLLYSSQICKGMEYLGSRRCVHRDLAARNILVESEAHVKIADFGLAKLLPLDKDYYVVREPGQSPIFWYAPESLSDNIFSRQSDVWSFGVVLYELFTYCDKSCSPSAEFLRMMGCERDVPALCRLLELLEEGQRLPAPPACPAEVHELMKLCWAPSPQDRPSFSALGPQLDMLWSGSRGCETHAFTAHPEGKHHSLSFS
Description: as §1

T1 sequence (P29597 whole entry): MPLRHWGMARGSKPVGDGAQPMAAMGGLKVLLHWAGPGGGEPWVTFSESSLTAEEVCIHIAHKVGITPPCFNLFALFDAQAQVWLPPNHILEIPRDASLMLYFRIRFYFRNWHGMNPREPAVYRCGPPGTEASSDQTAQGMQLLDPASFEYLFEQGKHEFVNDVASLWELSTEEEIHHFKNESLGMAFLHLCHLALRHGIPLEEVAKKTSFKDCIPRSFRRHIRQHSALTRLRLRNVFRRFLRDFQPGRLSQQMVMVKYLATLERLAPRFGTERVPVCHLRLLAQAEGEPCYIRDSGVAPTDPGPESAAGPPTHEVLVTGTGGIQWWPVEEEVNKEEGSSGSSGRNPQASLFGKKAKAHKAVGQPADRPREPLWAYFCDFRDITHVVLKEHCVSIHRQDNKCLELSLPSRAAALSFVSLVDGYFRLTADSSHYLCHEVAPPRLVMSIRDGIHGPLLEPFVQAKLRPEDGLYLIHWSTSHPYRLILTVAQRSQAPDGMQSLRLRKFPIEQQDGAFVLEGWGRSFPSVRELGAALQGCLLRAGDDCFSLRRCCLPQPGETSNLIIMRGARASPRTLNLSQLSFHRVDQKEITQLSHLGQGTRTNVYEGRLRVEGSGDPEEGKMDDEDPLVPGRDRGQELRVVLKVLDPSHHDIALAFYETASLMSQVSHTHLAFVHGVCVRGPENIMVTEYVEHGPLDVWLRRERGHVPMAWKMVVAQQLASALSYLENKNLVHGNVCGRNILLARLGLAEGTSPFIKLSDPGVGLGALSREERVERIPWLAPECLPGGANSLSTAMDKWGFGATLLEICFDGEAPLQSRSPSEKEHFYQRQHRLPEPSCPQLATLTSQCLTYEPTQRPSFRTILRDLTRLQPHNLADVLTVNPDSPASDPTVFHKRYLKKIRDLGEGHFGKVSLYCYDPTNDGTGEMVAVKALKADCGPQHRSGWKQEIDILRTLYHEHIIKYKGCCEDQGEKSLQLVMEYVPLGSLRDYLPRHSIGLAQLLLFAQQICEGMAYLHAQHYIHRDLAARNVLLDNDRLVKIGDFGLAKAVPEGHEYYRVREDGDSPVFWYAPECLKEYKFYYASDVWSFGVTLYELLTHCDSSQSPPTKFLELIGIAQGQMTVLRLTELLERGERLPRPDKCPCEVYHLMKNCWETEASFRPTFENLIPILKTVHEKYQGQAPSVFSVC

Compound	IC50 (Recombinant TYK2) [µM]	IC50 (Recombinant JAK2) [µM]	IC50 (Recombinant JAK1) [µM]	IC50 (Recombinant JAK3) [µM]
O=C(NCC(F)(F)F)c1ccc(-c2ccnc3[nH]c(=O)[nH]c23)cc1 [Example 1001, N-(2,2,2-trifluoroethyl)-4-(2,3-dihydro-2-oxo-1H-imidazo[4,5-b]pyridin-7-yl)benzamide]	> 10	> 10	> 10	> 10
O=C(NCC(F)(F)F)Nc1ncc(-c2ccnc3[nH]c(=O)[nH]c23)cn1 [Example 1004, 1-(2,2,2-trifluoroethyl)-3-(5-(2,3-dihydro-2-oxo-1H-imidazo[4,5-b]pyridin-7-yl)pyrimidin-2-yl)urea]	> 10	> 10	> 10	> 10
O=C(NCC(F)(F)F)Nc1cnc(-c2ccnc3[nH]c(=O)[nH]c23)cn1 [Example 1006, 1-(5-(2-oxo-2,3-dihydro-1H-imidazo[4,5-b]pyridin-7-yl)pyrazin-2-yl)-3-(2,2,2-trifluoroethyl)urea]	> 1			
O=C(Nc1ccc(-c2ccnc3[nH]c(=O)[nH]c23)cc1)N1CCOCC1 [Example 1008, N-(4-(2,3-dihydro-2-oxo-1H-imidazo[4,5-b]pyridin-7-yl)phenyl)morpholine-4-carboxamide]	> 10	> 1	> 1	> 1
O=C(Nc1ccncc1)Nc1ccc(-c2ccnc3[nH]c(=O)[nH]c23)cc1 [Example 1009, 1-(4-(2,3-dihydro-2-oxo-1H-imidazo[4,5-b]pyridin-7-yl)phenyl)-3-(pyridin-4-yl)urea]	> 10	> 0.5	> 10	> 1
O=C(NCC(F)(F)F)Nc1ccc(-c2ccnc3[nH]cnc23)cc1 [Example 1010, 1-(4-(3H-imidazo[4,5-b]pyridin-7-yl)phenyl)-3-(2,2,2-trifluoroethyl)urea]	> 1	< 0.5	< 0.5	> 0.5
N#CCNC(=O)N1CCN(c2ccnc3[nH]c(=O)[nH]c23)CC1 [Example 1012, N-(cyanomethyl)-4-(2,3-dihydro-2-oxo-1H-imidazo[4,5-b]pyridin-7-yl)piperazine-1-carboxamide]				> 1
CS(=O)(=O)CCNC(=O)N1CCN(c2ccnc3[nH]c(=O)[nH]c23)CC1 [Example 1013, 4-(2,3-dihydro-2-oxo-1H-imidazo[4,5-b]pyridin-7-yl)-N-(2-(methylsulfonyl)ethyl)piperazine-1-carboxamide]	> 10	> 10	> 10	> 10
O=C(Nc1ccnc(F)c1)N1CCN(c2ccnc3[nH]c(=O)[nH]c23)CC1 [Example 1015, N-(2-fluoropyridin-4-yl)-4-(2,3-dihydro-2-oxo-1H-imidazo[4,5-b]pyridin-7-yl)piperazine-1-carboxamide]	> 1	> 1		> 1
CS(=O)(=O)N1CCC(NC(=O)N2CCN(c3ccnc4[nH]c(=O)[nH]c34)CC2)CC1 [Example 1016, N-(1-(methylsulfonyl)piperidin-4-yl)-4-(2-oxo-2,3-dihydro-1H-imidazo[4,5-b]pyridin-7-yl)piperazine-1-carboxamide]	> 10	> 10	> 10	> 10
O=C(NCC1CCCC1)N1CCN(c2ccnc3[nH]c(=O)[nH]c23)CC1 [Example 1017, N-(cyclopentylmethyl)-4-(2,3-dihydro-2-oxo-1H-imidazo[4,5-b]pyridin-7-yl)piperazine-1-carboxamide]	> 10	> 1	> 1	> 10
O=C(N1CCN(c2ccnc3[nH]c(=O)[nH]c23)CC1)N1CCS(=O)(=O)CC1 [Example 1018, 7-(4-(1,1-dioxidothiomorpholine-4-carbonyl)piperazin-1-yl)-1,3-dihydro-2H-imidazo[4,5-b]pyridin-2-one]	> 10	> 10	> 10	> 10
COc1cc(NC(=O)N2CCN(c3ccnc4[nH]c(=O)[nH]c34)CC2)ccn1 [Example 1019, 4-(2,3-dihydro-2-oxo-1H-imidazo[4,5-b]pyridin-7-yl)-N-(2-methoxypyridin-4-yl)piperazine-1-carboxamide]	> 1	> 1		> 1
O=C(NC1CCS(=O)(=O)CC1)N1CCN(c2ccnc3[nH]c(=O)[nH]c23)CC1 [Example 1020, N-(1,1-dioxidotetrahydro-2H-thiopyran-4-yl)-4-(2-oxo-2,3-dihydro-1H-imidazo[4,5-b]pyridin-7-yl)piperazine-1-carboxamide]	> 10	> 10	> 10	> 10
CC(NC(=O)N1CCN(c2ccnc3[nH]c(=O)[nH]c23)CC1)C(F)(F)F (stereo not shown) [Example 1021, N-(1,1,1-trifluoropropan-2-yl)-4-(2,3-dihydro-2-oxo-1H-imidazo[4,5-b]pyridin-7-yl)piperazine-1-carboxamide]	> 1	> 1		> 1
CC1(C)CN(C(=O)N2CCN(c3ccnc4[nH]c(=O)[nH]c34)CC2)C1 [Example 1023, 7-(4-(3,3-dimethylazetidine-1-carbonyl)piperazin-1-yl)-1,3-dihydro-2H-imidazo[4,5-b]pyridin-2-one]	> 10	> 10	> 10	> 10

The next lines start with the values.

IC50 (Recombinant TYK2) [µM]	IC50 (Recombinant JAK2) [µM]	IC50 (Recombinant JAK1) [µM]	IC50 (Recombinant JAK3) [µM]	Compound
> 1	> 1	> 1	> 1	Cc1cc(S(C)(=O)=O)ccc1NC(=O)N1CCN(c2ccnc3[nH]c(=O)[nH]c23)CC1 [Example 1024, 4-(2,3-dihydro-2-oxo-1H-imidazo[4,5-b]pyridin-7-yl)-N-(2-methyl-4-(methylsulfonyl)phenyl)piperazine-1-carboxamide]
> 1			> 1	CC(C)(C#N)NC(=O)n1cc(-c2ccnc3[nH]c(=O)[nH]c23)cn1 [Example 1033, N-(2-cyanopropan-2-yl)-4-(2,3-dihydro-2-oxo-1H-imidazo[4,5-b]pyridin-7-yl)-1H-pyrazole-1-carboxamide]
> 1				CCC(C)(C#N)NC(=O)n1cc(-c2ccnc3[nH]c(=O)[nH]c23)cn1 (stereo not shown) [Example 1040, N-(2-cyanobutan-2-yl)-4-(2,3-dihydro-2-oxo-1H-imidazo[4,5-b]pyridin-7-yl)-1H-pyrazole-1-carboxamide]
> 1	> 0.1		> 0.1	CN(C)C(c1ccc(-n2cc(-c3ccnc4[nH]cnc34)cn2)nc1)C(F)(F)F (stereo not shown) [Example 1121, 1-(6-(4-(3H-imidazo[4,5-b]pyridin-7-yl)-1H-pyrazol-1-yl)pyridin-3-yl)-2,2,2-trifluoro-N,N-dimethylethanamine]
> 1	> 0.5		> 0.1	OC(c1ccc(-n2cc(-c3ccnc4[nH]cnc34)cn2)nc1)(C1CCCC1)C(F)(F)F (stereo not shown) [Example 1132, 1-(6-(4-(3H-imidazo[4,5-b]pyridin-7-yl)-1H-pyrazol-1-yl)pyridin-3-yl)-1-cyclopentyl-2,2,2-trifluoroethanol]
> 1	> 0.5		> 0.5	FC(F)(F)C(c1ccc(-n2cc(-c3ccnc4[nH]cnc34)cn2)nc1)N1CCOCC1 (stereo not shown) [Example 1137, 7-(1-(5-(2,2,2-trifluoro-1-morpholinoethyl)pyridin-2-yl)-1H-pyrazol-4-yl)-3H-imidazo[4,5-b]pyridine]
> 1			< 0.1	OC(c1ccnc(-n2cc(-c3ccnc4[nH]cnc34)cn2)c1)C(F)(F)F (stereo not shown) [Example 1172, 1-(2-(4-(3H-imidazo[4,5-b]pyridin-7-yl)-1H-pyrazol-1-yl)pyridin-4-yl)-2,2,2-trifluoroethanol]
